# Results taken from US10329295B2, “Pyrrolotriazine inhibitors of IRAK4 activity” (MERCK SHARP & DOHME CORP., priority 2015, dated 2019).
# Counter-ions that a name gives are not always drawn.
# Target: GST tagged IRAK4 (Homo sapiens (Human), UniProt Q9NWZ3)
# Experiment: IRAK4 Kinase Assay (IMAP fluorescence polarization)
# Type: biochemical
# Settings: 0.5 nM GST tagged IRAK4, 100 μM ATP, 30 minutes at 25° C.
# Outline: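 Reactions contained 0.5 nM GST-IRAK4, 100 nM fluorescent peptide substrate and 100 μM ATP in 10 mM Tris-HCl pH 7.2 with 1 mM MgCl2, and were started with ATP. After 30 minutes at 25° C they were stopped with IMAP reagent. Substrate phosphorylation was read as the change in fluorescence polarization.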
# GST tagged IRAK4, sequence (Q9NWZ3 whole entry): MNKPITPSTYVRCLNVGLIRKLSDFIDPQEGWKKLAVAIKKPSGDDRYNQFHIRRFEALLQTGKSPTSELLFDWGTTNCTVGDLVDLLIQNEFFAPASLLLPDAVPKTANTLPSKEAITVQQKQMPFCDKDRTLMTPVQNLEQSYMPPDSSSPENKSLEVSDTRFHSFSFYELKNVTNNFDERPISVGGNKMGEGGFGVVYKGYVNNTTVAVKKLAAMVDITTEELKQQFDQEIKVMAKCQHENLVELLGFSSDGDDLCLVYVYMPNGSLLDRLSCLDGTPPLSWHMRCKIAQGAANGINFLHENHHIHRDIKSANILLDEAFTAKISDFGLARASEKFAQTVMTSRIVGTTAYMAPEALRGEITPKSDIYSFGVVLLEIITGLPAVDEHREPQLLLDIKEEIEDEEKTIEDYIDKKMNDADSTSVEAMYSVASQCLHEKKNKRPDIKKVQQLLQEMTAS
row,IC50 [nM],SMILES
1,1910,"N#Cc1ccccc1NC(=O)c1ccc2cnc(N3CCNCC3)nn12 [Example 58, N-(2-cyanophenyl)-2-piperazin-1-ylpyrrolo[2,1-f][1,2,4]triazine-7-carboxamide trifluoroacetate]"
2,4270,"N#Cc1ccccc1NC(=O)c1ccc2cnc(N3CCCNCC3)nn12 [Example 59, N-(2-cyanophenyl)-2-(1,4-diazepan-1-yl)pyrrolo[2,1-f][1,2,4]triazine-7-carboxamide trifluoroacetate]"
3,1,"Cn1cc(NC(=O)c2ccc3cnc(N[C@@H]4CCCC[C@@H]4N)nn23)c(Br)n1 [Example 66, 2-{[(1R,2S)-2-aminocyclohexyl]amino}-N-(3-bromo-1-methyl-1H-pyrazol-4-yl)pyrrolo[2,1-f][1,2,4]triazine-7-carboxamide trifluoroacetate]"
4,39,"Cn1cc(NC(=O)c2ccc3cnc(N4CCCNCC4)nn23)c(Br)n1 [Example 67, N-(3-bromo-1-methyl-1H-pyrazol-4-yl)-2-(1,4-diazepan-1-yl)pyrrolo[2,1-f][1,2,4]triazine-7-carboxamide trifluoroacetate]"
5,26,"Cn1ncc(NC(=O)c2ccc3cnc(N[C@@H]4CCCC[C@@H]4N)nn23)c1C(F)(F)F [Example 70, 2-{[(1R,2S)-2-aminocyclohexyl]amino}-N-[1-methyl-5-(trifluoromethyl)-1H-pyrazol-4-yl]pyrrolo[2,1-f][1,2,4]triazine-7-carboxamide trifluoroacetate]"
6,661,"N#Cc1ccccc1NC(=O)c1ccc2cnc(N[C@@H]3CCCC[C@@H]3O)nn12 [Example 71, N-(2-cyanophenyl)-2-{[(1R,2S)-2-hydroxycyclohexyl]amino}-pyrrolo[2,1-f][1,2,4]triazine-7-carboxamide]"
7,970,"N#Cc1ccccc1NC(=O)c1ccc2cnc(N3CCNCC4(CC4)C3)nn12 [Example 76, N-(2-cyanophenyl)-2-(5,8-diazaspiro[2.6]non-5-yl)pyrrolo[2,1-f][1,2,4]triazine-7-carboxamide trifluoroacetate]"
8,229,"Cn1cc(NC(=O)c2ccc3cnc(N[C@@H]4CCCC(F)(F)[C@@H]4N)nn23)c(Cl)n1 [Example 79, 2-{[(1R,2R)-2-amino-3,3-difluorocyclohexyl]amino}-N-(3-chloro-1-methyl-1H-pyrazol-4-yl)pyrrolo[2,1-f][1,2,4]triazine-7-carboxamide trifluoroacetate]"
9,2640,"O=C(Nc1ccsc1C(F)(F)F)c1ccc2cnc(N3CCCNCC3)nn12 [Example 85, 2-(1,4-diazepan-1-yl)-N-[2-(trifluoromethyl)thiophen-3-yl]pyrrolo[2,1-f][1,2,4]triazine-7-carboxamide trifluoroacetate]"
10,58,"N[C@H]1CCCC[C@H]1Nc1ncc2ccc(C(=O)Nc3ccsc3C(F)(F)F)n2n1 [Example 88, 2-{[(1R,2S)-2-aminocyclohexyl]amino}-N-[2-(trifluoromethyl)thiophen-3-yl]pyrrolo[2,1-f][1,2,4]triazine-7-carboxamide trifluoroacetate]"
11,373,"Cn1cc(NC(=O)c2ccc3cnc(N[C@@H]4CCCC(F)(F)[C@@H]4N)nn23)c(Br)n1 [Example 89, 2-{[(1R,2R)-2-amino-3,3-difluorocyclohexyl]amino}-N-(3-bromo-1-methyl-1H-pyrazol-4-yl)pyrrolo[2,1-f][1,2,4]triazine-7-carboxamide trifluoroacetate]"
12,46,"Cn1cc(NC(=O)c2ccc3cnc(N[C@@H]4CCCC(F)(F)[C@@H]4N)nn23)c(C(F)F)n1 [Example 92, 2-{[(1R,2R)-2-amino-3,3-difluorocyclohexyl]amino}-N-[3-(difluoromethyl)-1-methyl-1H-pyrazol-4-yl]pyrrolo[2,1-f][1,2,4]triazine-7-carboxamide trifluoroacetate]"
13,298,"N[C@@H]1[C@H](Nc2ncc3ccc(C(=O)Nc4cscc4C(F)F)n3n2)CCCC1(F)F [Example 93, 2-{[(1R,2R)-2-amino-3,3-difluorocyclohexyl]amino}-N-[4-(difluoromethyl)thiophen-3-yl]pyrrolo[2,1-f][1,2,4]triazine-7-carboxamide trifluoroacetate]"
14,4150,"N[C@@H]1[C@H](Nc2ncc3ccc(C(=O)Nc4ccsc4Br)n3n2)CCCC1(F)F [Example 94, 2-{[(1R,2R)-2-amino-3,3-difluorocyclohexyl]amino}-N-(2-bromothiophen-3-yl)pyrrolo[2,1-f][1,2,4]triazine-7-carboxamide trifluoroacetate]"
15,4700,"N[C@@H]1[C@H](Nc2ncc3ccc(C(=O)Nc4ccsc4C(F)(F)F)n3n2)CCCC1(F)F [Example 95, 2-{[(1R,2R)-2-amino-3,3-difluorocyclohexyl]amino}-N-[2-(trifluoromethyl)thiophen-3-yl]pyrrolo[2,1-f][1,2,4]triazine-7-carboxamide trifluoroacetate]"
16,1910,"N[C@@H]1[C@H](Nc2ncc3ccc(C(=O)Nc4ccsc4Cl)n3n2)CCCC1(F)F [Example 97, 2-{[(1R,2R)-2-amino-3,3-difluorocyclohexyl]amino}-N-(2-chlorothiophen-3-yl)pyrrolo[2,1-f][1,2,4]triazine-7-carboxamide trifluoroacetate]"
17,86,"Cn1cc(NC(=O)c2ccc3cnc(N[C@@H]4CCCC(F)(F)[C@@H]4N)nn23)c(C#N)n1 [Example 98, 2-{[(1R,2R)-2-amino-3,3-difluorocyclohexyl]amino}-N-(3-cyano-1-methyl-1H-pyrazol-4-yl)pyrrolo[2,1-f][1,2,4]triazine-7-carboxamide trifluoroacetate]"
18,4820,"O=C(Nc1cscc1Cl)c1ccc2cnc(N3CCCNCC3)nn12 [Example 105, N-(4-chlorothiophen-3-yl)-2-(1,4-diazepan-1-yl)pyrrolo[2,1-f][1,2,4]triazine-7-carboxamide trifluoroacetate]"
19,5810,"N[C@@H]1[C@H](Nc2ncc3ccc(C(=O)Nc4ccccc4Br)n3n2)CCCC1(F)F [Example 106, 2-{[(1R,2R)-2-amino-3,3-difluorocyclohexyl]amino}-N-(2-bromophenyl)pyrrolo[2,1-f][1,2,4]triazine-7-carboxamide trifluoroacetate]"
20,2,"N[C@H]1CCCC[C@H]1Nc1ncc2ccc(C(=O)Nc3cscc3Cl)n2n1 [Example 109, 2-{[(1R,2S)-2-aminocyclohexyl]amino}-N-(4-chlorothiophen-3-yl)pyrrolo[2,1-f][1,2,4]triazine-7-carboxamide trifluoroacetate]"
21,20,"Cn1cc(NC(=O)c2ccc3cnc(N[C@@H]4CCCC[C@@H]4O)nn23)c(C#N)n1 [Example 122, N-(3-cyano-1-methyl-1H-pyrazol-4-yl)-2-{[(1R,2S)-2-hydroxycyclohexyl]amino}-pyrrolo[2,1-f][1,2,4]triazine-7-carboxamide trifluoroacetate]"
22,1,"Cn1cc(NC(=O)c2ccc3cnc(N4CCC[C@H](N)C4)nn23)c(C#N)n1 [Example 123, 2-[(3S)-3-aminopiperidin-1-yl]-N-(3-cyano-1-methyl-1H-pyrazol-4-yl)pyrrolo[2,1-f][1,2,4]triazine-7-carboxamide trifluoroacetate]"
23,0.8,"Cn1cc(NC(=O)c2ccc3cnc(N[C@@H]4CCCNC4)nn23)c(C#N)n1 [Example 124, N-(3-cyano-1-methyl-1H-pyrazol-4-yl)-2-[(3R)-piperidin-3-ylamino]pyrrolo[2,1-f][1,2,4]triazine-7-carboxamide trifluoroacetate]"
24,1,"Cn1cc(NC(=O)c2ccc3cnc(N4CCC[C@@H](N)C4)nn23)c(C#N)n1 [Example 125, 2-[(3R)-3-aminopiperidin-1-yl]-N-(3-cyano-1-methyl-1H-pyrazol-4-yl)pyrrolo[2,1-f][1,2,4]triazine-7-carboxamide trifluoroacetate]"
25,1270,"N[C@@H]1[C@H](Nc2ncc3ccc(C(=O)Nc4cscc4Cl)n3n2)CCCC1(F)F [Example 126, 2-{[(1R,2R)-2-amino-3,3-difluorocyclohexyl]amino}-N-(4-chlorothiophen-3-yl)pyrrolo[2,1-f][1,2,4]triazine-7-carboxamide trifluoroacetate]"

row,SMILES,IC50 [nM]
1,"Cn1cc(NC(=O)c2ccc3cnc(N4CC5CCC(C4)N5)nn23)c(C(F)(F)F)n1 [Example 82, 2-(3,8-diazabicyclo[3.2.1]oct-3-yl)-N-[1-methyl-3-(trifluoromethyl)-1H-pyrazol-4-yl]pyrrolo[2,1-f][1,2,4]triazine-7-carboxamide trifluoroacetate]",32
2,"Cn1cc(NC(=O)c2ccc3cnc(N4CC5CCC(C4)N5)nn23)c(C(F)F)n1 [Example 83, 2-(3,8-diazabicyclo[3.2.1]oct-3-yl)-N-[3-[difluoromethyl)-1-methyl-1H-pyrazol-4-yl]pyrrolo[2,1-f][1,2,4]triazine-7-carboxamide trifluoroacetate]",2
3,"Cn1cc(NC(=O)c2ccc3cnc(N4C5CCC4CNC5)nn23)c(C(F)(F)F)n1 [Example 96, 2-(3,8-diazabicyclo[3.2.1]oct-8-yl)-N-[1-methyl-3-(trifluoromethyl)-1H-pyrazol-4-yl]pyrrolo[2,1-f][1,2,4]triazine-7-carboxamide trifluoroacetate]",5
4,"Cn1cc(NC(=O)c2ccc3cnc(N4CC5CCC(C4)N5)nn23)c(C#N)n1 [Example 110, N-(3-cyano-1-methyl-1H-pyrazol-4-yl)-2-(3,8-diazabicyclo[3.2.1]oct-3-yl)pyrrolo[2,1-f][1,2,4]triazine-7-carboxamide trifluoroacetate]",117
5,"Cn1cc(NC(=O)c2ccc3cnc(N4C5CCC4CNC5)nn23)c(C#N)n1 [Example 111, N-(3-cyano-1-methyl-1H-pyrazol-4-yl)-2-(3,8-diazabicyclo[3.2.1]oct-8-yl)pyrrolo[2,1-f][1,2,4]triazine-7-carboxamide trifluoroacetate]",12
6,"Cn1cc(NC(=O)c2ccc3cnc(N4C5CCC4CNC5)nn23)c(C(F)F)n1 [Example 121, 2-(3,8-diazabicyclo[3.2.1]oct-8-yl)-N-[3-(difluoromethyl)-1-methyl-1H-pyrazol-4-yl]pyrrolo[2,1-f][1,2,4]triazine-7-carboxamide trifluoroacetate]",0.5
